Values quoted from earlier work, collected in patent US10188676B2, “Anti-inflammatory solution” (Hypo-Stream Limited, priority 2013, dated 2019).

Test system: alveolar osteitis (AO)
Settings: 0.2% solution or gel, surgical site irrigation

SMILES: [H]/N=C(\N/C(=N/[H])NCCCCCCNC(=N)NC(=N)Nc1ccc(Cl)cc1)Nc1ccc(Cl)cc1 [chlorhexidine]
- effectiveness against alveolar osteitis: Neither report found evidence of effectiveness
